Source: ChEMBL document CHEMBL1159209, “Antineoplastic agents, 294. Variations in the formation of pancratistatin and related isocarbostyrils in Hymenocallis littoralis” (J Nat Prod, 1995)
The source made the active and inactive calls. No cut-off for these calls is given here.

How the values were obtained:
[1] = test system: P388; test: In vivo cytotoxicity against mouse P388 cells; type: functional, organism-based
[2] = test system: M5076; test: In vivo cytotoxicity against mouse M5076 cells; type: functional, organism-based

## O=C1N[C@H]2[C@H](O)[C@H](O)[C@@H](O)[C@H](O)[C@@H]2c2cc3c(c(O)c21)OCO3
[1]
  Activity: Active
[2]
  Activity: Active
